Measured values taken from patent publication US8247211B2, “Glycopeptide antibiotics” (American Cyanamid Company, priority 2001, dated 2012).

Assays:
Experiment in all cases: In vitro antibacterial evaluation: minimum inhibitory concentration (MIC), broth dilution method
Format in all cases: cell-based
Streptococcus sp. = settings: 18 hours at 35° C.
How it was run: (§1)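 Values are minimum inhibitory concentrations, meaning the smallest antibiotic concentration that stops growth of the organism. They come from broth dilution in Muller-Hinton II […] per NCCLS guidance (M7-A2), using 5×10^5 CFU/mL and concentrations from 64 to 0.06 μg/mL.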

Staphylococcus sp. = settings: 18 hours at 35° C.
How it was run: as §1

Escherichia coli [1] = system: Escherichia coli
How it was run: as §1

Enterococcus sp. = system: Enterococcus sp.
How it was run: as §1

Escherichia coli [2] = system: Escherichia coli; remark: listed apart in the source
[3] = Streptococcus agalactiae (GC 4564)
[4] = Staphylococcus aureus (ATCC 29213)
[5] = Staphylococcus aureus (GC 1131)
[6] = Staphylococcus aureus (GC 4541)
[7] = Staphylococcus aureus (GC 4542)
[8] = Staphylococcus aureus (GC 4544)
[9] = Staphylococcus aureus (GC 4545)
[10] = Enterococcus faecalis (ATCC 29212)
[11] = Enterococcus faecalis (GC 2242), 18 hours at 35° C.
[12] = Enterococcus faecalis (GC 4552), 18 hours at 35° C.
[13] = Enterococcus faecalis (GC 4553)
[14] = Enterococcus faecalis (GC 4554)

α-O-[(Benzylamino)carbonyl]-cyclo[glycyl-β-methylphenylalanyl-O-(4-O-hexopyranosylhexopyranosyl)tyrosyl-3(2-iminoimidazolidin-4-yl)seryl-3-(3-hexopyranosyl-2-iminoimidazolidin-4-yl)serylseryl] [Example 257]
8 mg/L: MIC Coagulase Negative Staphylococcus (GC 4551) (Staphylococcus sp.)
0.25 mg/L: MIC Streptococcus pneumoniae (ATCC 6301) (Streptococcus sp.; Streptococcus pneumoniae (ATCC 6301)) | MIC Streptococcus pneumoniae (GC 1894) (Streptococcus sp.; Streptococcus pneumoniae (GC 1894)) | MIC Streptococcus pneumoniae (ATCC 6301) (Streptococcus sp.; broth dilution, strain ATCC 6301) | MIC Streptococcus pneumoniae (GC 1894) (Streptococcus sp.; broth dilution, strain GC 1894)
1 mg/L: MIC Streptococcus pneumoniae (GC 4565) (Streptococcus sp.; Streptococcus pneumoniae (GC 4565)) | MIC Streptococcus pneumoniae (GC 4565) (Streptococcus sp.; broth dilution, strain GC 4565) | MIC Coagulase Negative Staphylococcus (GC 6257) (Staphylococcus sp.; Coagulase Negative Staphylococcus (GC 6257))
>0.5 mg/L: MIC Escherichia coli (GC 4559) (Escherichia coli [1]) | MIC Enterococcus faecalis (GC 4552) (Enterococcus sp.; [12]) | MIC Enterococcus faecalis (GC 4554) (Enterococcus sp.; [14]) | MIC Enterococcus faecalis (GC 4552) (Enterococcus sp.; broth dilution, 18 hours at 35° C., strain GC 4552) | MIC Enterococcus faecalis (GC 4554) (Enterococcus sp.; broth dilution, 18 hours at 35° C., strain GC 4554) | MIC Escherichia coli (ATCC 25922) (Escherichia coli [2])
2 mg/L: MIC Streptococcus agalactiae (GC 4564) (Streptococcus sp.; [3]) | MIC Streptococcus agalactiae (GC 4564) (Streptococcus sp.; broth dilution, strain GC 4564) | MIC Coagulase Negative Staphylococcus (GC 4547) (Staphylococcus sp.) | MIC Coagulase Negative Staphylococcus (GC 4548) (Staphylococcus sp.) | MIC Coagulase Negative Staphylococcus (GC 4549) (Staphylococcus sp.) | MIC Staphylococcus haemolyticus (GC 4546) (Staphylococcus sp.) | MIC Enterococcus faecium (GC 4557) (Enterococcus sp.; Enterococcus faecium (GC 4557)) | MIC Enterococcus faecium (GC 4557) (Enterococcus sp.; broth dilution, 18 hours at 35° C., strain GC 4557)
16 mg/L: MIC Enterococcus faecium (GC 2243) (Enterococcus sp.; Enterococcus faecium (GC 2243)) | MIC Enterococcus faecium (GC 4556) (Enterococcus sp.; Enterococcus faecium (GC 4556)) | MIC Enterococcus faecium (GC 2243) (Enterococcus sp.; broth dilution, 18 hours at 35° C., strain GC 2243) | MIC Enterococcus faecium (GC 4556) (Enterococcus sp.; broth dilution, 18 hours at 35° C., strain GC 4556)
0.5 mg/L: MIC Staphylococcus aureus (ATCC 29213) (Staphylococcus sp.; [4]) | MIC Staphylococcus aureus (GC 1131) (Staphylococcus sp.; [5]) | MIC Staphylococcus aureus (GC 3051) (Staphylococcus sp.; Staphylococcus aureus (GC 3051)) | MIC Staphylococcus aureus (GC 3053) (Staphylococcus sp.; Staphylococcus aureus (GC 3053)) | MIC Staphylococcus aureus (GC 4541) (Staphylococcus sp.; [6]) | MIC Staphylococcus aureus (GC 4542) (Staphylococcus sp.; [7]) | MIC Staphylococcus aureus (GC 4544) (Staphylococcus sp.; [8]) | MIC Staphylococcus aureus (GC 4545) (Staphylococcus sp.; [9]) | MIC Staphylococcus aureus-SMITH (GC 4543) (Staphylococcus sp.) | MIC Staphylococcus aureus (ATCC 29213) (Staphylococcus sp.; broth dilution, strain ATCC 29213) | MIC Staphylococcus aureus (GC 1131) (Staphylococcus sp.; broth dilution, strain GC 1131) | MIC Staphylococcus aureus (GC 3051) (Staphylococcus sp.; broth dilution, strain GC 3051) | MIC Staphylococcus aureus (GC 3053) (Staphylococcus sp.; broth dilution, strain GC 3053) | MIC Staphylococcus aureus (GC 4541) (Staphylococcus sp.; broth dilution, strain GC 4541) | MIC Staphylococcus aureus (GC 4542) (Staphylococcus sp.; broth dilution, strain GC 4542) | MIC Staphylococcus aureus (GC 4544) (Staphylococcus sp.; broth dilution, strain GC 4544) | MIC Staphylococcus aureus (GC 4545) (Staphylococcus sp.; broth dilution, strain GC 4545) | MIC Escherichia coli (GC 4560) (Escherichia coli [1]) | MIC Enterococcus avium (GC 4558) (Enterococcus sp.; Enterococcus avium (GC 4558)) | MIC Enterococcus faecalis (ATCC 29212) (Enterococcus sp.; [10]) | MIC Enterococcus faecalis (GC 2242) (Enterococcus sp.; [11]) | MIC Enterococcus faecalis (GC 2691) (Enterococcus sp.; Enterococcus faecalis (GC 2691), 18 hours at 35° C.) | MIC Enterococcus faecalis (GC 3059) (Enterococcus sp.; Enterococcus faecalis (GC 3059), 18 hours at 35° C.) | MIC Enterococcus faecalis (GC 4553) (Enterococcus sp.; [13]) | MIC Enterococcus faecalis (GC 6189) (Enterococcus sp.; Enterococcus faecalis (GC 6189)) | MIC Enterococcus faecalis (ATCC 29212) (Enterococcus sp.; broth dilution, 18 hours at 35° C., strain ATCC 29212) | MIC Enterococcus faecalis (GC 2242) (Enterococcus sp.; broth dilution, 18 hours at 35° C., strain GC 2242) | MIC Enterococcus faecalis (GC 2691) (Enterococcus sp.; broth dilution, 18 hours at 35° C., strain GC 2691) | MIC Enterococcus faecalis (GC 3059) (Enterococcus sp.; broth dilution, 18 hours at 35° C., strain GC 3059) | MIC Enterococcus faecalis (GC 4553) (Enterococcus sp.; broth dilution, 18 hours at 35° C., strain GC 4553) | MIC Enterococcus avium (GC 4558) (Enterococcus sp.; broth dilution, 18 hours at 35° C., strain GC 4558) | MIC Enterococcus faecalis (GC 6189) (Enterococcus sp.; broth dilution, 18 hours at 35° C., strain GC 6189)
0.12 mg/L: MIC Streptococcus pyogenes (GC 4563) (Streptococcus sp.; Streptococcus pyogenes (GC 4563)) | MIC Streptococcus pyogenes (GC 4563) (Streptococcus sp.; broth dilution, strain GC 4563)

CC(C)CC(=O)OC1C(O)C(CO)OC(OC2C(CO)OC(Oc3ccc(CC4NC(=O)C(C(C)c5ccc(Cl)cc5)NC(=O)CNC(=O)C(CO)NC(=O)C(C(O)C5CNC(=N)N5C5OC(CO)C(O)C(O)C5O)NC(=O)C(C(O)C5CNC(=N)N5)NC4=O)cc3)C(O)C2O)C1O (centres unmarked) [Example 262b]
16 mg/L: MIC Enterococcus avium (GC 4558) (Enterococcus sp.; Enterococcus avium (GC 4558)) | MIC Enterococcus faecalis (GC 2242) (Enterococcus sp.; [11]) | MIC Enterococcus faecium (GC 2243) (Enterococcus sp.; Enterococcus faecium (GC 2243)) | MIC Enterococcus faecium (GC 4556) (Enterococcus sp.; Enterococcus faecium (GC 4556))
4 mg/L: MIC Staphylococcus aureus (ATCC 29213) (Staphylococcus sp.; [4]) | MIC Staphylococcus aureus (ATCC 29213) (Staphylococcus sp.; Staphylococcus aureus (ATCC 29213), broth dilution) | MIC Staphylococcus aureus (GC 1131) (Staphylococcus sp.; [5]) | MIC Staphylococcus aureus (GC 1131) (Staphylococcus sp.; Staphylococcus aureus (GC 1131), broth dilution) | MIC Staphylococcus aureus (GC 4544) (Staphylococcus sp.; [8]) | MIC Staphylococcus aureus (GC 4544) (Staphylococcus sp.; Staphylococcus aureus (GC 4544), broth dilution)
32 mg/L: MIC Enterococcus faecalis (ATCC 29212) (Enterococcus sp.; [10]) | MIC Enterococcus faecalis (GC 4552) (Enterococcus sp.; [12]) | MIC Enterococcus faecalis (GC 4553) (Enterococcus sp.; [13]) | MIC Enterococcus faecalis (GC 4554) (Enterococcus sp.; [14])
1 mg/L: MIC Streptococcus agalactiae (GC 4564) (Streptococcus sp.; [3]) | MIC Streptococcus pyogenes (ID-3187) (Streptococcus sp.; Streptococcus pyogenes (ID-3187)) | MIC Coagulase Negative Staphylococcus (GC 4548) (Staphylococcus sp.) | MIC Coagulase Negative Staphylococcus (GC 4548) (Staphylococcus sp.; broth dilution) | MIC Coagulase Negative Staphylococcus (GC 4549) (Staphylococcus sp.) | MIC Coagulase Negative Staphylococcus (GC 4549) (Staphylococcus sp.; broth dilution) | MIC Staphylococcus aureus-SMITH (GC 4543) (Staphylococcus sp.) | MIC Staphylococcus aureus-SMITH (GC 4543) (Staphylococcus sp.; broth dilution) | MIC Escherichia coli (GC 4560) (Escherichia coli [1])
2 mg/L: MIC Coagulase Negative Staphylococcus (GC 4547) (Staphylococcus sp.) | MIC Coagulase Negative Staphylococcus (GC 4547) (Staphylococcus sp.; broth dilution) | MIC Coagulase Negative Staphylococcus (GC 4551) (Staphylococcus sp.) | MIC Coagulase Negative Staphylococcus (GC 4551) (Staphylococcus sp.; broth dilution) | MIC Staphylococcus aureus (GC 4541) (Staphylococcus sp.; [6]) | MIC Staphylococcus aureus (GC 4541) (Staphylococcus sp.; Staphylococcus aureus (GC 4541), broth dilution) | MIC Staphylococcus aureus (GC 4542) (Staphylococcus sp.; [7]) | MIC Staphylococcus aureus (GC 4542) (Staphylococcus sp.; Staphylococcus aureus (GC 4542), broth dilution) | MIC Staphylococcus aureus (GC 4545) (Staphylococcus sp.; [9]) | MIC Staphylococcus aureus (GC 4545) (Staphylococcus sp.; Staphylococcus aureus (GC 4545), broth dilution) | MIC Staphylococcus haemolyticus (GC 4546) (Staphylococcus sp.) | MIC Staphylococcus haemolyticus (GC 4546) (Staphylococcus sp.; broth dilution) | MIC Enterococcus faecium (GC 4557) (Enterococcus sp.; Enterococcus faecium (GC 4557))
>64 mg/L: MIC Escherichia coli (GC 4559) (Escherichia coli [1]) | MIC Escherichia coli (ATCC 25922) (Escherichia coli [2])
